The results in this text go back to patent US11046680B1, “Heteroaryl-substituted triazoles as APJ receptor agonists” (priority 2016, dated 2021).

Usually EC50 stands for the concentration giving half of the maximal effect.

The target of this assay is human APJ receptor (Homo sapiens (Human), UniProt P35414). The assay can be described thus: biochemical. Format: biochemical. The following applies: [35S]GTPγS binding, CHO membranes expressing human APJ receptor; read-out: Activity hAPJ SPA EC50 IP. The method, boiled down: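 GTPγS binding on membranes from CHO cells stably expressing FLAG-tagged human APJ, with optimized GDP, MgCl2 and NaCl; incubated 90 min at RT before imaging read-out.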
human APJ receptor, sequence (P35414 whole entry): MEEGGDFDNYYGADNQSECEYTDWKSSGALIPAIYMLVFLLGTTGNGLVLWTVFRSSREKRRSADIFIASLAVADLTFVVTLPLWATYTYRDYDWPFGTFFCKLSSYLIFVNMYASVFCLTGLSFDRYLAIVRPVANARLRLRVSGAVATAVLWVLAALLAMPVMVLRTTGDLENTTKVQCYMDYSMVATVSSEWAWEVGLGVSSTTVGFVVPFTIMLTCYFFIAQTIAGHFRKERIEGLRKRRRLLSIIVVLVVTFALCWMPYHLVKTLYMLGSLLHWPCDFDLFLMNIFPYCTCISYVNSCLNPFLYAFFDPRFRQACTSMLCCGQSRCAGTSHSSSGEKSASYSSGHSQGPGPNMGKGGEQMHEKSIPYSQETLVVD
A general note: GTPγS resists hydrolysis and so accumulates on activated G proteins.

`COc1cccc(OC)c1-n1c(NS(=O)(=O)CCc2ccc(Cl)cc2)nnc1-c1ncco1` [Example 92.0, 2-(4-chlorophenyl)-N-(4-(2,6-dimethoxyphenyl)-5-(oxazol-2-yl)-4H-1,2,4-triazol-3-yl)ethanesulfonamide]: the EC50 came out at 71 nM.

Regarding `COc1cccc(OC)c1-n1c(NS(=O)(=O)CCc2ccc(Cl)cc2)nnc1-c1cncn1C` [Example 93.0, 2-(4-chlorophenyl)-N-(4-(2,6-dimethoxyphenyl)-5-(1-methyl-1H-imidazol-5-yl)-4H-1,2,4-triazol-3-yl)ethanesulfonamide], the EC50 is 20 nM.

In the case of `COc1cccc(OC)c1-n1c(NS(=O)(=O)CCc2ncc(F)cn2)nnc1-c1nc(C)cs1` [Example 94.0, N-(4-(2,6-dimethoxyphenyl)-5-(4-methylthiazol-2-yl)-4H-1,2,4-triazol-3-yl)-2-(5-fluoropyrimidin-2-yl)ethanesulfonamide], the EC50 stood at 2.7 nM.

As to `COc1cccc(OC)c1-n1c(NS(=O)(=O)CCc2ncc(F)cn2)nnc1-c1nc(C(C)C)cs1` [Example 96.0, N-(4-(2,6-dimethoxyphenyl)-5-(4-isopropylthiazol-2-yl)-4H-1,2,4-triazol-3-yl)-2-(5-fluoropyrimidin-2-yl)ethanesulfonamide], the EC50 was determined as 7 nM.

Consider `CCc1csc(-c2nnc(NS(=O)(=O)CCc3ncc(F)cn3)n2-c2c(OC)cccc2OC)n1` [Example 97.0, N-(4-(2,6-dimethoxyphenyl)-5-(4-ethylthiazol-2-yl)-4H-1,2,4-triazol-3-yl)-2-(5-fluoropyrimidin-2-yl)ethanesulfonamide], for which the EC50 stood at 7 nM.

Turning to `CCc1nc(-c2nnc(NS(=O)(=O)CCc3ncc(F)cn3)n2-c2c(OC)cccc2OC)cs1` [Example 99.0, N-(4-(2,6-dimethoxyphenyl)-5-(2-ethylthiazol-4-yl)-4H-1,2,4-triazol-3-yl)-2-(5-fluoropyrimidin-2-yl)ethanesulfonamide], the EC50 worked out at 13 nM.

In the case of `COc1cccc(OC)c1-n1c(NS(=O)(=O)[C@H](C)Cc2ncc(F)cn2)nnc1-c1nc(C)cs1` [Example 100.0], the EC50 came out at 3 nM.

For `COc1cccc(OC)c1-n1c(NS(=O)(=O)[C@H](C)Cc2ncc(F)cn2)nnc1-c1nc(C)cs1` [Example 103.0], the EC50 turned out to be 8.4 nM.

On to `CCc1csc(-c2nnc(NS(=O)(=O)[C@H](C)Cc3ncc(F)cn3)n2-c2c(OC)cccc2OC)n1` [Example 106.0], for which the EC50 stood at 21 nM.

Consider `COc1ccc(N2CCCC2=O)cc1-n1c(NS(=O)(=O)CCc2ccc(Cl)cc2)nnc1-c1cccs1` [Example 125.0, 2-(4-Chlorophenyl)-N-(4-(2-methoxy-5-(2-oxo-1-pyrrolidinyl)phenyl)-5-(2-thiophenyl)-4H-1,2,4-triazol-3-yl)ethanesulfonamide], for which the EC50 was 24 nM.

`COc1ccc(N2CCC2=O)cc1-n1c(NS(=O)(=O)CCc2ccc(Cl)cc2)nnc1-c1cccs1` [Example 126.0, 2-(4-Chlorophenyl)-N-(4-(2-methoxy-5-(2-oxo-1-azetidinyl)phenyl)-5-(2-thiophenyl)-4H-1,2,4-triazol-3-yl)ethanesulfonamide]: the EC50 was found to be 11 nM.

For `COc1ccc(N2CCOCC2=O)cc1-n1c(NS(=O)(=O)CCc2ccc(Cl)cc2)nnc1-c1cccs1` [Example 127.0, 2-(4-Chlorophenyl)-N-(4-(2-methoxy-5-(3-oxo-4-morpholinyl)phenyl)-5-(2-thiophenyl)-4H-1,2,4-triazol-3-yl)ethanesulfonamide], the EC50 is 300 nM.

Consider `COc1ccc(N2CCC2=O)cc1-n1c(NS(=O)(=O)CCc2ccc(F)cc2)nnc1-c1cccs1` [Example 130.0, 2-(4-Fluorophenyl)-N-(4-(2-methoxy-5-(2-oxo-1-azetidinyl)phenyl)-5-(2-thiophenyl)-4H-1,2,4-triazol-3-yl)ethanesulfonamide], for which the EC50 was determined as 3.5 nM.
